In paper PMC8068288, “Novel Thiol Containing Hybrid Antioxidant-Nitric Oxide Donor Small Molecules for Treatment of Glaucoma” (Antioxidants, 2021):
Like-named read-outs stand apart in the source and are kept apart here.

Experiments:
[1] = Superoxide anion radical scavenging assay (pyrogallol/WST-1) in buffer; format: biochemical
Description: The ROS scavenging ratio was determined using a chemical assay where WST-1 was used as superoxide scavenger produced by pyrogallol following a reported protocol. Briefly, the superoxide anion radical scavenging activity was determined spectrophotometrically by measuring the formation of WST-1 formazan at 450 nm. WST-1 (40 µL, 50 µM) was added to the compounds (or corresponding solution) in a final volume of 160 µL in 50 mM ammonium hydrogen carbonate buffer, 0.5 mM EDTA, pH 9.3. Reaction was launched by adding 40 µL 1 mM pyrogallol. The operation was based on the 96-well microplate, and measurement was performed at different time points under 37 °C by Cytation5 Microplate Reader. Baicalein (1 mM) was used as positive control. Compounds SA-2, SA-9, and SA-10 were used in concentrations ranging from 1 µM, 10 µM, 100 µM, and 1000 µM. The superoxide anion radical scavenging ratio % was calculated according to the following formula:Scavenging ratio (%) = A0 − (A1 − A2)/A0 × 100%

[2] = Hypochlorous acid (HOCl) radical scavenging assay (TNB) in buffer; format: biochemical
Description: This assay used the redox reaction between 5-thio-2-nitrobenzoic acid (TNB) and HOCl to form dithio-TNB. Using the method described previously, we assessed the % TNB remaining with or without treatment with SA compounds. Compounds SA-2, SA-9, and SA-10 were used in concentrations ranging from 0.1 µM, 1 µM, 10 µM, 100 µM, and 1000 µM. Lipoic acid (1 mM) was used as positive control.

[3] = Total nitrite/NO release by Griess assay in buffer (aqueous stability); format: physicochemical; settings: even after 3 days
Description: The total nitrite released from the compounds in buffer and in cell supernatant were measured by Griess assay as reported by us previously. In brief, compounds (SA-2, SA-9, and SA-10) in buffer at different concentrations (1 mM, 500 µM, 250 µM 125 µM, 62.5 µM, 31.25 µM, and 15.625 µM) or supernatant collected from Human transformed trabecular meshwork (NTM-5) cells were added to a 96-well plate. 1% Sulphanilamide in 5% phosphoric acid and 0.1% N-1-napthylethylenediamine dihydrochloride (NED) were added to experimental samples sequentially at room temperature and away from light. SIN-1 was used as reference standard. […]

[4] = tested on: NTM-5 cells; assay: Total nitrite release by Griess assay in NTM-5 cell supernatant; format: cell-based, human
Description: The total nitrite released from the compounds in buffer and in cell supernatant were measured by Griess assay as reported by us previously. In brief, compounds (SA-2, SA-9, and SA-10) in buffer at different concentrations (1 mM, 500 µM, 250 µM 125 µM, 62.5 µM, 31.25 µM, and 15.625 µM) or supernatant collected from Human transformed trabecular meshwork (NTM-5) cells were added to a 96-well plate. 1% Sulphanilamide in 5% phosphoric acid and 0.1% N-1-napthylethylenediamine dihydrochloride (NED) were added to experimental samples sequentially at room temperature and away from light. SIN-1 was used as reference standard. UV Absorbances (Cytation 5) were measured at specific timepoints (0, 5 min, 10 min, 15 min, 30 min, 24 h, and 28 h) at 520 nm.
The experiments were repeated twice with four technical replicates.

[5] = tested on: NTM-5 cells; assay: In vitro cytoprotection assay against TBHP (MTT); format: cell-based; settings: Homo sapiens, TBHP 350 µM, read-out: EC50 of increase in cell viability (cytoprotection)
Description: After 24 h of treatment, cell proliferation was measured using MTT assay. All the experiments are done in duplicate with four experimental replicates.

[6] = tested on: NTM-5 cells; assay: In vitro peroxynitrite measurement assay; format: cell-based, human; settings: 0.1 µM and 1 mM, with or without TBHP 350 µM
Description: Human transformed trabecular meshwork (NTM-5) cells (20,000 cells/well/90 µL) were seeded in 96-well plates (Griener bio-one black plate) and stained with 10 µL of 10X Peroxynitrite Sensor Green solution for 1 h. […] SIN-1 was used as a positive control. Detection of peroxynitrite was done using Peroxynitrite Assay Kit (abcam-ab233468-cell based). Fluorescence signals were measured using a microplate reader (Cytation5) at Ex/Em = 485/530 nm at time intervals (15 min, 30 min, 1 h, 2 h, and 3 h). The experiments were done in duplicates.

[7] = Ocular biodistribution after SA-9 and SA-9 NPs eye drop; format: in vivo; settings: topical, 30 µL of 2% SA-9 solution, mouse, 1 h after single eye drop of 2% SA-9 solution
[8] = tested on: NTM-5 cells; assay: In vitro cell viability (MTT) assay; settings: NTM-5 cells, 24 h, up to 1000 µM
Description: NTM-5 cells (6000 cells/well) were seeded in 96-well plates to confluency. […] The cell viability and proliferation were measured using MTT assays (CellTiter 96® AQueous One Solution Cell Proliferation Assay, Promega Madison, WI, USA) following manufacturer instruction. The experiments were repeated twice with four technical replicates.

Structure (SMILES): Cl.[NH-]c1c[n+](C2CCSCC2)no1 [SA-9, (3-(tetrahydro-2H-thiopyran-4-yl)-1,2,3-oxadiazol-3-ium-5-yl)amide hydrochloride]
- AUC0–2.5 h of % superoxide scavenging response ([1]; 1 mM compound, pyrogallol 1 mM, buffer): 1355 ± 42.62
- earliest time of superoxide (O2−) radical scavenging ([1]; buffer solution and TM cells): 7 min
- superoxide radicals scavenged ([1]; buffer, dose response 1-1000 µM): 16–40%
- AUC0-15 of % superoxide scavenging response ([1]; different concentrations 1-1000 µM, 15 minutes time point, buffer): 5972± 834.9
- fold more potent than lipoic acid in HOCl scavenging ([2]; 0.1 µM vs. 1 mM lipoic acid, 30 min): 10,000 fold
- duration of HOCl scavenging effect ([2]; 0.1 µM–1000 µM in buffer): > 1 h
- NO release in buffer [3]: did not observe any NO release
- NO released in NTM-5 cell supernatants ([4]; 28 h at 37 °C): dose dependently
- start of NO release ([4]; buffer solution and TM cells): > 24 h
- EC50 [5]: 1 µM
- ONOO− radical formation [6]: significantly less amount of radicals
- concentration at 1 h ([7]; choroid + sclera, read-out: concentration of SA-9 in choroid + sclera): 28900 ± 2500 ng/g
- concentration at 1 h ([7]; lens, read-out: concentration of SA-9 in lens): 20500 ± 8300 ng/g
- concentration at 1 h ([7]; optic nerve, read-out: concentration of SA-9 in ON): 1300 ± 90 ng/g
- concentration at 1 h ([7]; retina, read-out: concentration of SA-9 in retina): 8250 ± 10200 ng/g
- cytotoxicity [8]: no cytotoxicity
